Like-named read-outs stand apart in the source and are kept apart here.
What was measured:
CYP3A4 [1] = target: T1, CYP3A4 (Homo sapiens, UniProt P08684); settings: Crespi et al., Anal. Biochem. 248:188-190 (1997); cited from earlier work
CYP3A4 [2] = target: T1, CYP3A4; experiment: DCF formation during CYP3A4-mediated metabolism of substrates (CYP3A4OR, DCFH-DA, NADPH)
Experimental: A fluorogenic probe 2′, 7′-dichlorodihydrofluorescin-diacetate (DCFH-DA) was added to a CYP-mediated reaction mixture containing a substrate, isoenzyme, and NADPH in Tris buffer (50 mM, pH 7.4). The substrate comprised testosterone. Metabolism of the substrate was examined by measurement of formation of the resulting metabolite (prior art method) and/or 2′, 7′-dichlorofluroescein (DCF; method in accordance with the present invention) which was converted from the DCFH-DA in the presence of the ROS produced by CYP-mediated reactions. Dextromethorphan and benzyloxyresorufin served as two additional substrates, and phenacetine (not a CYP3A4 substrate) as a negative control for CYP3A4 to test whether the method of the present invention could differentiate substrates with different metabolic rates or substrates from non-substrates.
Initial studies were conducted to examine whether DCF was formed during CYP-mediated oxidation using testosterone hydroxylation by CYP3A4OR. A reaction mixture (total 2 ml) comprising DCFH-DA (5.36 μM), CYP3A4OR (0.5 mg/ml) and testosterone (50 μM) in Tris buffer (50 mM, pH 7.4) was prepared. The reaction was initiated by adding NADPH (0.5 mM) and allowed to proceed at room temperature. The fluorescent spectra (emission and excitation) of DCF formed from the incubation was determined using LS50B Luminescence Spectrometer (Perkin-Elmer, Norwalk, Conn.). The spectra were compared with that of standard DCF in Tris buffer (50 mM, pH 7.4). An incubation mixture that contained all the components as described previously except for DCFH-DA served as a control.
(§1) Metabolism—After obtaining the maximal excitation and emission wavelengths of DCF under experimental conditions, the fluorescent signals at the maximal excitation and emission wavelengths were determined for incubation reactions that contained 12.5, 25, and 50 μM testosterone to test whether DCF formation was dependent on testosterone concentrations. The incubation conditions were the same as those described above. The formation of DCF at 10 min post addition of NADPH was calculated based on the standard curve of DCF. The standard curve covered DCF concentrations ranging from 0.05 to 50 nM. In parallel, DCF formation was determined with incubation reactions that were devoid of any of NADPH, CYP3A4 or testosterone.
DCFH-DA (1, 2.5 or 5 μM) was incubated with CYP3A4OR (0.5 mg/ml protein), testosterone (33 μM), and NADPH (1 mM) in Tris buffer. DCF concentration was measured at 5, 10, 20 and 30 min. The effect of NADPH concentration on DCF formation at 20 and 30 min was examined with incubations containing NADPH (0.5, 1 or 2 mM), testosterone (33 μM), and DCFH-DA (2.5 μM).
(§2) DCFH-DA (2.5 ,μM) was incubated with testosterone (5-40 4 μM), CYP3A4OR (0.5 mg/ml protein) and NADPH (1 mM) in Tris buffer. The total incubation volume was 1 ml. The formation of DCF was measured at 10 and 20 min post addition of NADPH. Triplicate incubations were performed at each concentration. A Michaelis-Menten function was used to fit to DCF formation rate vs. testosterone concentration data to obtain estimates of the relevant kinetic parameters using the nonlinear least-squares regression method (Winnonlin Scientific Consulting Co., Apex, N.C.). Parallel experiments were conducted to obtain the kinetic parameters based on measurement of 6β-OH testosterone, a specific CYP3A4-mediated metabolite of testosterone, with the HPLC-UV method. The concentration range of testosterone used for the HPLC-UV method was 10 to 75 μM.
Dextromethorphan (2-100 μM), benzyloxyresorufin (5-100 μM), or phenacetin (48 μM) was incubated with CYP3A4OR (0.5 or 1 mg/ml), DCFH-DA (2.5 μM) and NADPH (1 mM) in Tris buffer. In the case of benzyloxyresorufin, pluronic F-68 (2%, 5 μl) was added to the reaction mixture (Crespi et al., Ana. Biochem. 248:188-190). DCF formation was measured at timed intervals.

CYP3A4 [3] = target: T1, CYP3A4; experiment: 6β-OH testosterone formation during CYP3A4-mediated testosterone metabolism, HPLC-UV method; settings: recombinant CYP3A4OR
Experimental: as §1
as §2, with “Parallel experiments were conducted to obtain the kinetic parameters based on measurement of 6β-OH testosterone, a specific CYP3A4-mediated metabolite of testosterone, with the HPLC-UV method. The concentration range of testosterone used for the HPLC-UV method was 10 to 75 μM.” left out

CYP3A4 [4] = target: T1, CYP3A4; experiment: HPLC monitoring of potential phenacetin metabolites after incubation with CYP3A4OR; assay type: in vitro ADME; parameters: Glaxo Wellcome Inc. (gift); settings: phenacetin 92 μM; CYP3A4OR 0.5 or 1 mg/ml; NADPH 1 mM; 10 or 30 min
Experimental: Briefly, acetonitrile (0.4 ml) was added to a reaction mixture (0.5 ml) of phenacetin as described previously. The resultant solution was mixed and centrifuged (15,000×3 min). An aliquot (100 μl) of the supernatant was injected to an Advantage 100 5 micron C18 column (4.6×250 mm, Thomas Liquid Chromatography). The mobile phase comprised CH3CN and H2O with a gradient from 1 to 99% CH3CN over 20 min at a flow rate of 1 ml/min. Phenacetin and its potential metabolites were monitored at 244 nm.
Potential metabolites of phenacetin were monitored by HPLC. […] Phenacetin (92 μM) was incubated with CYP3A4oR (0.5 or 1 mg/ml) and NADPH (1 mM) for 10 or 30 min. Incubation in the absence of NADPH was used as control.

CYP1A2 = target: T2, CYP1A2 (Homo sapiens, UniProt P05177); settings: 5 min
T2 sequence (P05177 1-516): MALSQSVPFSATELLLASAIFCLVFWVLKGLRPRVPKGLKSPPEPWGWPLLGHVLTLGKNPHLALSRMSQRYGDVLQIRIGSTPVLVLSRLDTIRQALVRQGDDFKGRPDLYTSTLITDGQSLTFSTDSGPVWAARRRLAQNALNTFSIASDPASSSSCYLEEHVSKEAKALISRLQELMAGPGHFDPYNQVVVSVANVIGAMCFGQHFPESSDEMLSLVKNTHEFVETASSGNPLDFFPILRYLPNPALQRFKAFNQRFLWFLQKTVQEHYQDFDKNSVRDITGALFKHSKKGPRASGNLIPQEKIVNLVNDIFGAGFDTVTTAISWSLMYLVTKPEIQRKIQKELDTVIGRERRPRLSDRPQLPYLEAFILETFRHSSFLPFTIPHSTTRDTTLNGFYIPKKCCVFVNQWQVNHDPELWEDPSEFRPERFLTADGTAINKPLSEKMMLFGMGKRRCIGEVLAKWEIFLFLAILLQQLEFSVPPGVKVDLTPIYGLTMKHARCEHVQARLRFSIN
Experimental: The effect of furafylline, a specific inhibitor of CYP1A2, on CYP1A2-mediated ethoxyresorufin metabolism was also examined. Furafylline (1 and 10 ,μM) was pre-incubated with CYP1A2 SUPERSOME™ (180 μg/ml protein) and NADPH (4 mM) in Tris buffer in a total volume of 0.5 ml for 10 min. Then ethoxyresorufin (5 μM), DCFH-DA (5 μM), and supplemental NADPH was added to the mixture. The reaction proceeded for 5 min.

[5] = substrate: CCOc1ccc2nc3ccc(=O)cc-3oc2c1; experiment: Resorufin formation during CYP1A2-mediated metabolism of ethoxyresorufin (fluorescence spectrophotometry); assay type: in vitro ADME, human; settings: other: CYP1A2 SUPERSOME 90 μg/ml; 5 min
Experimental: Resorufin, a common metabolite of ethoxyresorufin by CYP1A2 and of benzyloxyresorufin by CYP3A4, was measured by fluorescence spectrophotometry as described above for DCF, with excitation and emission wavelength at 570 and 583 nm, respectively.
(§3) Initial experiments were conducted to examine ethoxyresorufin concentration-dependent formation of DCF. Ethoxyresorufin (0.5, 5, 50 μM) was incubated with CYP1A2 SUPERSOME™ (sold under this trademark by Gentest Corp., Woburn, Mass.) (90 μg/ml protein), DCFH-DA (5 μM) and NADPH (1 mM). Formation of resorufin and DCF for the sample was measured at 8 and 10 min, respectively. The kinetic parameters then were obtained by incubating ethoxyresorufin (0.5-2.5 μM) with CYP1A2 SUPERSOME™ (90 μg/ml protein), DCFH-DA (5 μM), and NADPH (1 mM) for 5 min for measurement of resorufin formation and 15 min for measurement of DCF formation. Formation of DCF and resorufin was determined by fluorescence spectrophotometry. All experiments were performed in triplicate unless otherwise indicated.

[6] = substrate: CCOc1ccc2nc3ccc(=O)cc-3oc2c1; experiment: DCF formation during CYP1A2-mediated metabolism of ethoxyresorufin (CYP1A2 SUPERSOME); assay type: in vitro ADME, human; settings: other: CYP1A2 SUPERSOME 90 μg/ml; DCFH-DA 5 μM; 15 min
Experimental: as §3

[7] = read-out: Apparent Km by measurement of DCF formation, CYP3A4OR, DCFH-DA 2.5 μM, NADPH 1 mM, Michaelis-Menten fit

T1 sequence (P08684 whole entry): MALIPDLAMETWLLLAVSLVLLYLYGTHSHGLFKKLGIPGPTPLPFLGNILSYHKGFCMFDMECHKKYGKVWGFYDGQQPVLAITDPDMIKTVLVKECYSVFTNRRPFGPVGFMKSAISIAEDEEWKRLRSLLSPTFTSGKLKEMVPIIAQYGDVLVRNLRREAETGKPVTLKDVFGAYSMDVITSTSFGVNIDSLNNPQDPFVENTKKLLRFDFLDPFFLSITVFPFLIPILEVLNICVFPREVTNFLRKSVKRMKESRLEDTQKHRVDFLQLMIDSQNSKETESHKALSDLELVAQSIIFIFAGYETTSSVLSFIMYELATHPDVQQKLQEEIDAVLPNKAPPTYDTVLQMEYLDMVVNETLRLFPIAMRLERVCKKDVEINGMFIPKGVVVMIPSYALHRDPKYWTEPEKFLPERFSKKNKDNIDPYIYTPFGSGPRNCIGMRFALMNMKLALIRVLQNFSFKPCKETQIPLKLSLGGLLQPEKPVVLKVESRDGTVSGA

In the case of O=c1ccc2nc3ccc(OCc4ccccc4)cc3oc-2c1 [Benzyloxyresorufin, 7-benzyloxyresorufin], the “Vmax for benzyloxyresorufin by CYP3A4” value (CYP3A4 [1]) is listed as 0.31 min⁻¹, the “Apparent Vmax by measurement of DCF formation” value (CYP3A4 [2]; CYP3A4OR, DCFH-DA 2.5 μM, NADPH 1 mM, Michaelis-Menten fit) is listed as 1.17 ± 0.14 pmol DCF/min/mg pr and the Km (CYP3A4 [2]; [7]) is listed as 3.79 ± 2.34 µM.

In the case of C[C@]12CC[C@H]3[C@@H](CCC4=CC(=O)CC[C@@]43C)[C@@H]1CC[C@@H]2O [Testosterone], the Km (CYP3A4 [3]) is reported as 43.4 µM, the Km (CYP3A4 [2]; human, pH 7.4, Apparent Km by measurement of DCF formation, CYP3A4OR, DCFH-DA 2.5 μM, NADPH 1 mM, Michaelis-Menten fit) is reported as 11.9 µM and the “Km by DCF measurement lower than Km by 6β-OH testosterone measurement” value (CYP3A4 [2]; ratio of the two Km values) is reported as “approximately 3.5 fold”. It also gave a Km (CYP3A4 [2]; [7]) of 12 ± 3.58 µM.

In the case of CCOc1ccc(NC(C)=O)cc1 [Phenacetin, N-[4-ethoxyphenyl] acetamide], the “metabolites found by prior art HPLC methods” value (CYP3A4 [4]) is reported as “no detectable metabolites” and the “DCF formation from potential metabolism by CYP3A4 (in words)” value (CYP3A4 [2]; human, 48 μM, pH 7.4) is reported as “^aPhenacetin was not significantly metabolized by CYP3A4, and DCF formation was not sufficiently high to allow measurement”.

For Cc1nc2c([nH]1)c(=O)n(C)c(=O)n2Cc1ccco1 [furafylline], the DCF formation (CYP1A2; 1 μM) was 83.9 ±10.2 % of the control and the DCF formation (CYP1A2; 10 μM) was 73.9±7.0 % of the control.

B1: CYP1A2 (Homo sapiens) (protein)
chain: T2 sequence (P05177 1-516)
notes: purchased Gentest Corp. (Woburn, Mass.)
For B1, the Km [5] was 4.89 ± 1.71 µM and the Km [6] was 3.46 ± 1.07 µM.
